The target of data set [1] is T1, human PDE4B1 (Homo sapiens, UniProt Q07343).
T1 construct: host or cells: Sf9 cells
In words: TR-FRET assay using the LANCE Ultra cAMP kit to determine the activity of hPDE4B1. In kind it is biochemical. The conditions noted are these: read-out: Inhibition in % (inhibition of PDE4B); for inhibition at 1 µM: test concentration 1 μM; for inhibition at 10 µM: test concentration 10 μM (marked in cell). Put shortly: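 Sf9-expressed recombinant human PDE4B1 (0.96 U) hydrolyses 500 nM cAMP for 30 minutes at room temperature in 50 mM Tris-HCl, 50 mM MgCl2, 5 mM DTT, pH 8.5. The reaction is stopped with IBMX, and residual cAMP is measured by TR-FRET (665/620 ratio). IC50 comes from ten concentrations.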
For orientation: In TR-FRET formats the signal depends on donor and acceptor labels being close together.

Data set [2] concerns the target T1, human PDE4B1. Kind of data set: cAMP HTRF assay to determine the activity of hPDE4B1. The format is biochemical. The conditions noted are these: inhibition of PDE4B at a test concentration of 1 μM. A digest of the protocol:
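Human recombinant PDE4B1 from Sf9 cells (4.8 U) in Tris-HCl, MgCl2, DTT, Tween 20 buffer at pH 7.8 with 40 nM cAMP (final), 30 min at room temperature. Reaction stopped with 1 mM IBMX; remaining cAMP detected by HTRF (665/620 nm ratio). IC50 from eight-concentration curves.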

Structures are written as SMILES.

T1 sequence (Q07343 whole entry): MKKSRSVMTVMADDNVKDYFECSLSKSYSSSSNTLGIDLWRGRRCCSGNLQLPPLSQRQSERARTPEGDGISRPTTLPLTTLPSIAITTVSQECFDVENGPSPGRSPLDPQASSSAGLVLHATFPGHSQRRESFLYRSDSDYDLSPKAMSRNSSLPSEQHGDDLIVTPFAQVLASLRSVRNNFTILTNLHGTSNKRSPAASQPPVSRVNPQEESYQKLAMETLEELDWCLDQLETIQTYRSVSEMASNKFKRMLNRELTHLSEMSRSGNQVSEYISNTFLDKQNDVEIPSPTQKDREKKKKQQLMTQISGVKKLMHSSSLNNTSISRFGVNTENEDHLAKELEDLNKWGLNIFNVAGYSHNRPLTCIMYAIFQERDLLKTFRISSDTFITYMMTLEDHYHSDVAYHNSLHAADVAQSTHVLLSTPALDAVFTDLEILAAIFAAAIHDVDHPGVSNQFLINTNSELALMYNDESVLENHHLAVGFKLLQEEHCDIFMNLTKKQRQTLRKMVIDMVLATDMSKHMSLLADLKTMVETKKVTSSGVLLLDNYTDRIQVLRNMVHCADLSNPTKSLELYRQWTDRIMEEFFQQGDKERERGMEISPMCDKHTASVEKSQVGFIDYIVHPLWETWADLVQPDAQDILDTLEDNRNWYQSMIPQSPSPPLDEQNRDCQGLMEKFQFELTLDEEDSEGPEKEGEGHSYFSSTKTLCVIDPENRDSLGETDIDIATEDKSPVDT

On to `O=C(c1ccc2c(C3CC3)cn(-c3ncc(-c4ccccc4F)cn3)c2c1)N1CCOCC1` [Example 354, (3-Cyclopropyl-1-(5-(2-fluorophenyl)pyrimidin-2-yl)-1H-indol-6-yl)(morpholino) methanone], for which the melting point lay in the range of 177 to 181 °C. For the same compound, the inhibition at 1 µM at human PDE4B1 [1] came out at 71%.
With `CNCCN(C)C(=O)c1ccc2c([S+](C)[O-])cn(-c3ncc(-c4ccccc4F)cn3)c2c1` (centres unmarked) [Example 346, 1-(5-(2-Fluorophenyl)pyrimidin-2-yl)-N-methyl-N-(2-(methylamino)ethyl)-3-(methylsulfinyl)-1H-indole-6-carboxamide], the melting point fell in the range of 122 to 126 °C. Besides, on human PDE4B1 [1], the inhibition at 1 µM is 87%.
`CC(C)c1ccnc(-c2cnc(-n3cc([S+](C)[O-])c4ccc(C(=O)N5CC[C@@H](N)C5)cc43)nc2)c1` (stereo partly drawn) [Example 338, ((R)-3-Aminopyrrolidin-1-yl)(1-(5-(4-isopropylpyridin-2-yl)pyrimidin-2-yl)-3-(methylsulfinyl)-1H-indol-6-yl)methanone] gave a melting point of 264 to 268 °C. Also, the inhibition at 10 µM at human PDE4B1 [1] is 99%.
`C[S+]([O-])c1cn(-c2ncc(-c3ccccc3F)cn2)c2cc(C(=O)N3CC4CCC3CN4)ccc12` (centres unmarked) [Example 347, 2,5-Diazabicyclo[2.2.2]octan-2-yl(1-(5-(2-fluorophenyl)pyrimidin-2-yl)-3-(methylsulfinyl)-1H-indol-6-yl)methanone] had a melting point of 141 to 144 °C. Besides, the inhibition at 10 µM on human PDE4B1 [1] amounted to 97%.
As for `Cc1csc(-c2cnc(-n3cc([S+](C)[O-])c4ccc(C(=O)N5CCOCC5)cc43)nc2)n1` (centres unmarked) [Example 205, (3-(Methylsulfinyl)-1-(5-(4-methylthiazol-2-yl)pyrimidin-2-yl)-1H-indol-6-yl)(morpholino)methanone], the melting point lay in the range of 247 to 249 °C. In addition, the inhibition at 1 µM at human PDE4B1 [1] came out at 93%.
`C[S+]([O-])c1cn(-c2ncc(-c3nc(C#N)cs3)cn2)c2cc(C(=O)N3CCOCC3)ccc12` (centres unmarked) [Example 203, 2-(2-(3-(Methylsulfinyl)-6-(morpholine-4-carbonyl)-1H-indol-1-yl)pyrimidin-5-yl)thiazole-4-carbonitrile] registered a melting point of 273 to 276 °C. The inhibition at 1 µM at human PDE4B1 [1] was 67%.
Turning to `C[S+]([O-])c1cn(-c2ncc(-c3cc(C(N)=O)cs3)cn2)c2cc(C(=O)N3CCOCC3)ccc12` (centres unmarked) [Example 196, 5-(2-(3-(Methylsulfinyl)-6-(morpholine-4-carbonyl)-1H-indol-1-yl)pyrimidin-5-yl)thiophene-3-carboxamide], the melting point was 302 to 305 °C. In addition, the inhibition at 1 µM on human PDE4B1 [1] is 96%.
The compound `C[S+]([O-])c1cn(-c2ncc(-c3ncc(C(N)=O)s3)cn2)c2cc(C(=O)N3CCOCC3)ccc12` (centres unmarked) [Example 208, 2-(2-(3-(Methylsulfinyl)-6-(morpholine-4-carbonyl)-1H-indol-1-yl)pyrimidin-5-yl)thiazole-5-carboxamide] returned a melting point of 286 to 289 °C. The inhibition at 1 µM at human PDE4B1 [1] is 82%.
For the compound `C[S+]([O-])c1cn(-c2ncc(-c3cc(C4CC4)ccn3)cn2)c2cc(C(=O)N3CC[C@@H](N)C3)ccc12` (stereo partly drawn) [Example 339, ((R)-3-Aminopyrrolidin-1-yl)(1-(5-(4-cyclopropylpyridin-2-yl)pyrimidin-2-yl)-3-(methylsulfinyl)-1H-indol-6-yl)methanone], the melting point lay in the range of 278 to 281 °C. Moreover, the inhibition at 10 µM at human PDE4B1 [1] was 105%.
`C[S+]([O-])c1cn(-c2ncc(-c3ccccc3F)cn2)c2cc(C(=O)N3CCO[C@H](CO)C3)ccc12` (stereo partly drawn) [Example 220, (1-(5-(2-Fluorophenyl)pyrimidin-2-yl)-3-(methylsulfinyl)-1H-indol-6-yl)((S)-2-(hydroxymethyl)morpholino)methanone] registered a melting point of 194 to 198 °C. For the same compound, the inhibition at 1 µM at human PDE4B1 [1] stood at 93%.
With `CN(CCN)C(=O)c1ccc2c([S+](C)[O-])cn(-c3ncc(-c4ccccc4F)cn3)c2c1` (centres unmarked) [Example 221, N-(2-Aminoethyl)-1-(5-(2-fluorophenyl)pyrimidin-2-yl)-N-methyl-3-(methylsulfinyl)-1H-indole-6-carboxamide], the melting point lay within 88 to 92 °C. Besides, on human PDE4B1 [1], the inhibition at 1 µM worked out at 94%.
`CCc1ccnc(-c2cnc(-n3cc([S+](C)[O-])c4ccc(C(=O)N5CC[C@@H](N)C5)cc43)nc2)c1` (stereo partly drawn) [Example 337, ((R)-3-Aminopyrrolidin-1-yl)(1-(5-(4-ethylpyridin-2-yl)pyrimidin-2-yl)-3-(methylsulfinyl)-1H-indol-6-yl)methanone] gave a melting point of 160 to 163 °C. Also, on human PDE4B1 [1], the inhibition at 10 µM was 102%.
Compound `C[S+]([O-])c1cn(-c2ncc(-c3ccccc3F)cn2)c2cc(C(=O)N3C4CCC3CNC4)ccc12` (centres unmarked) [Example 348, 3,8-Diazabicyclo[3.2.1]octan-8-yl(1-(5-(2-fluorophenyl)pyrimidin-2-yl)-3-(methylsulfinyl)-1H-indol-6-yl)methanone] gave a melting point of 237 to 240 °C. For the same compound, on human PDE4B1 [1], the inhibition at 1 µM is 99%.
`Cc1csc(-c2cnc(-n3cc([S+](C)[O-])c4ccc(C(=O)N5CCOCC5)cc43)nc2)c1` (centres unmarked) [Example 197] came in with a melting point of 232 to 235 °C. Also, the inhibition at 1 µM at human PDE4B1 [1] came out at 96%.
In turn, `Cc1ccnc(-c2cnc(-n3cc(S(C)(=O)=O)c4ccc(C(=O)N5CC[C@@H](N)C5)cc43)nc2)c1` [Example 340, (R)-(3-Aminopyrrolidin-1-yl)(1-(5-(4-methylpyridin-2-yl)pyrimidin-2-yl)-3-(methylsulfonyl)-1H-indol-6-yl)methanone] displayed a melting point of 157 to 160 °C. Besides, on human PDE4B1 [1], the inhibition at 10 µM was 100%.
In turn, `C[S+]([O-])c1cn(-c2ncc(-c3ccccc3F)cn2)c2cc(C(=O)N3CCO[C@@H](CO)C3)ccc12` (stereo partly drawn) [Example 219, (1-(5-(2-Fluorophenyl)pyrimidin-2-yl)-3-(methylsulfinyl)-1H-indol-6-yl)((R)-2-(hydroxymethyl)morpholino)methanone] yielded a melting point of 206 to 210 °C. At human PDE4B1 [1], the inhibition at 1 µM was 87%.
The compound `Cc1cccc(-c2cnc(-n3cc(S(C)(=O)=O)c4ccc(C(=O)N5CCNC(=O)C5)cc43)nc2)c1` [Example 151, 4-(3-(Methylsulfonyl)-1-(5-(m-tolyl)pyrimidin-2-yl)-1H-indole-6-carbonyl)piperazin-2-one] gave a melting point of 283 to 287 °C. In addition, at human PDE4B1 [2], the inhibition at 1 µM turned out to be 91%.
In the same order, the values of `C[S+]([O-])c1cn(-c2ncc(-c3ccnnc3)cn2)c2cc(C(=O)N3CCOCC3)ccc12` (centres unmarked) [Example 212, (3-(Methylsulfinyl)-1-(5-(pyridazin-4-yl)pyrimidin-2-yl)-1H-indol-6-yl)(morpholino)methanone] are 278 to 282 °C and 33%.
The compound `CS(=O)(=O)c1cn(-c2ncc(-c3ccccc3F)cn2)c2cc(C(=O)N3CCNCC3)ccc12` [Example 24, (1-(5-(2-Fluorophenyl)pyrimidin-2-yl)-3-(methylsulfonyl)-1H-indol-6-yl)(piperazin-1-yl)methanone] registered a melting point of 206 to 210 °C. In addition, on human PDE4B1 [2], the inhibition at 1 µM came to 41%.
In the same order, the values of `C[S+]([O-])c1cn(-c2ncc(-c3ccc(C(=O)O)cc3)cn2)c2cc(C(=O)N3CCOCC3)ccc12` (centres unmarked) [Example 191, 4-(2-(3-(Methylsulfinyl)-6-(morpholine-4-carbonyl)-1H-indol-1-yl)pyrimidin-5-yl)benzoic acid] are 219 to 223 °C and 85%.
In the same order, the values of `O=C(c1ccc2c(CO)cn(-c3ncc(-c4ccccc4F)cn3)c2c1)N1CCOCC1` [Example 27, (1-(5-(2-Fluorophenyl)pyrimidin-2-yl)-3-(hydroxymethyl)-1H-indol-6-yl)(morpholino)methanone] are 190 to 194 °C and 79%.
For `C[S+]([O-])c1cn(-c2ncc(-c3ccccc3F)cn2)c2cc(C(=O)N3CCNCC3)ccc12` (centres unmarked) [Example 13, (1-(5-(2-Fluorophenyl)pyrimidin-2-yl)-3-(methylsulfinyl)-1H-indol-6-yl)(piperazin-1-yl)methanone], the melting point lay within 199 to 203 °C. At human PDE4B1 [2], the inhibition at 1 µM came out at 51%.
In the same order, the values of `CC[S+]([O-])c1cn(-c2ncc(-c3ccccc3F)cn2)c2cc(C(=O)N3CCOCC3)ccc12` (centres unmarked) [Example 29, (3-(Ethylsulfinyl)-1-(5-(2-fluorophenyl)pyrimidin-2-yl)-1H-indol-6-yl)(morpholino)methanone] are 122 to 126 °C and 57%.
`C[S+]([O-])c1cn(-c2ncc(-c3ccccc3C#N)cn2)c2cc(C(=O)N3CCOCC3)ccc12` (centres unmarked) [Example 20, 2-(2-(3-(Methylsulfinyl)-6-(morpholine-4-carbonyl)-1H-indol-1-yl)pyrimidin-5-yl)benzonitrile] registered a melting point of 277 to 281 °C. Moreover, the inhibition at 1 µM at human PDE4B1 [2] is 74%.
In the case of `COC(=O)c1cccc(-c2cnc(-n3cc([S+](C)[O-])c4ccc(C(=O)N5CCOCC5)cc43)nc2)c1` (centres unmarked) [Example 192, Methyl 3-(2-(3-(methylsulfinyl)-6-(morpholine-4-carbonyl)-1H-indol-1-yl)pyrimidin-5-yl)benzoate], the melting point was 217 to 220 °C. Also, the inhibition at 1 µM on human PDE4B1 [2] came to 112%.

A word on the inhibition: it is the change of the read-out against control, counted positive when it falls. What is called melting point is the temperature of the solid-liquid transition.

(Values after patent US9315490B2, “2,5-substituted pyrimidines” (Grünenthal GmbH, priority 2014, dated 2016).)
